# Source: patent EP0785714B2, “ANTIMICROBIAL COMPOSITION” (Moberg, Sven, priority 1994, dated 1996)
# Read-outs that look alike come from different tables or passages of the source.
# Tests used:
# [1] = system: Pityrosporum ovale; conditions: 50 % aqueous solution; cited from earlier work
# [2] = system: fungi and bacteria; conditions: in vitro, cited from earlier work; for antimicrobial effect on comparison: 30 % diol
# [3] = system: Staphylococcus aureus; assay: MIC of propylene glycol alone and mixed with lactic acid; format: cell-based; conditions: propylene glycol (100%) alone
# Excerpt: (§1) The minimal inhibitory concentration (MIC) for propylene glycol (100%) tested on the bacterium Staphylococcus aureus and the dermophyte Tricophyton rubrum dropped from 8 % to 0.15 % and 0.38 % respectively if lactic acid was mixed with propylene glycol in the ratios 3:10 or 2:3. The composition gave a minimal inhibitory effect at concentration 0.25% and 0.5 % respectively. These MIC-values should be compared with the considerably higher MIC-values of 40 %, which were obtained when propylene glycol at 20 % was combined with aluminium acetotartrate (SE 8802257-9). […] Also other concentration ratios gave stronger but not optimum effect. The antimicrobial effects were not proportionate to the degree of acidity (pH).
# [4] = system: Tricophyton rubrum; assay: as above; format: cell-based; conditions: propylene glycol (100%) alone
# Excerpt: as §1
# [5] = system: Candica albicans; assay: MIC-plate determination (agar dilution), agents A1 and A2; format: cell-based; conditions: clinical isolate
# Method: (§2) A determination of the minimum inhibitory concentration (MIC) was carried out for different compositions of acid/glycol on different microorganisms.
# (§3) The components included in the composition were weighed with decimal precision. A dilution series in sterile destilled water was made where the completed composition is dilution 1. Dilution 2 is 50 % of the composition, dilution 3 is 25 % etc. One thus gets a series of 100 - 50 - 25 - 12.5 - 6.3- 3.1 - 1.6 - 0.8 - 0.4 - 0.2 - 0.1 %. To said dilutions the same amount (volume) of Oxoids Isosensitest agar was added at 62.4 g medium per litre.
# (§4) The Isosensitest agar is prepared and sterilized according to the maker's instructions. […] Furthermore a plate without the composition was prepared, called a blanc plate. From the different mixtures MIC-plates are moulded in sterile Petri dishes. From each agent a suspension was made corresponding to MacFarland 1. From this 0.2 ml was added to each MIC-plate and the blanc plate with a pipette. The MIC-plates were incubated in a thermostat having an optimum temperature for the agent. The MIC-value is the concentration of the composition on the MIC-plate where growth has stopped completely. Example. Agent 1 grows in 0.1 %, 0.2 %, 0.4 %, On the 0.8 %-plate the growth is weak but visible.
# [6] = system: Staphylococcus aureus; assay: MIC-plate determination (agar dilution), agents E1 and E2; format: cell-based; conditions: clinical isolate
# Method: as §2, §3, §4
# [7] = system: Pityrosporum orbiculare; assay: MIC-plate determination (agar dilution), agent B2; format: cell-based; conditions: agent B2, Pityrosporum orbiculare (Pityrosporum ovale)
# Method: as §2, §3, §4
# [8] = system: Malassezia furfur; assay: MIC-plate determination (agar dilution), agent B1; format: cell-based; conditions: agent B1, Malassezia furfur (Pityrosporum ovale)
# Method: as §2, §3, §4
# [9] = system: Streptococcus pyogenes; assay: MIC-plate determination (agar dilution), agents F1 and F2; format: cell-based; conditions: clinical isolate
# Method: as §2, §3, §4
# [10] = system: Trichophyton rubrum; assay: MIC-plate determination (agar dilution), agents C1 and C2; format: cell-based; conditions: clinical isolate
# Method: as §2, §3, §4
# [11] = system: Aspergillus niger; assay: MIC-plate determination (agar dilution), agents D1 and D2; format: cell-based; conditions: clinical isolate
# Method: as §2, §3, §4
# [12] = pH in the various MIC plates; format: physicochemical
# Method: as §3, §4
# [13] = system: Pseudomonas aeruginosa; assay: MIC-plate determination (agar dilution), agents G1 and G2; format: cell-based; conditions: clinical isolate
# Method: as §2, §3, §4
compound,measurement,setting,value
"CC(O)CO (stereo not drawn) [Composition 1, Propylene glycol]",effect against Pityriasis versicolor,[1],effective
same,antimicrobial effect on comparison,[2],about as effective as 10 % hexylene glycol
same,minimal inhibitory concentration (MIC) for propylene glycol,[3],8%
same,minimal inhibitory concentration (MIC) for propylene glycol,[4],8%
"OCCCCO [Composition 2, Butylene glycol]",antimicrobial effect on comparison,[2],about as effective as 10 % hexylene glycol
Hexylene glycol [Composition 3],antimicrobial effect,[2]; 1 % of the agent,lacked effect
same,antimicrobial effect,[2]; 5 % hexylene glycol,a certain antimicrobial effect
same,antimicrobial effect,[2]; 10-30 % hexylene glycol,showed antimicrobial effect within 20 hours
CC(O)CC(C)(C)O (stereo not drawn) [Composition 3],MIC-value,"[5]; agent A1, Candica albicans",6.3%
same,MIC-value,"[5]; agent A2, Candica albicans",6.3%
same,MIC-value,"[6]; agent E1, Staphylococcus aureus",12.5%
same,MIC-value,"[6]; agent E2, Staphylococcus aureus",12.5%
same,MIC-value,[7],25%
same,MIC-value,[8],25%
same,MIC-value,"[9]; agent F1, Streptococcus pyogenes",12.5%
same,MIC-value,"[9]; agent F2, Streptococcus pyogenes",12.5%
same,MIC-value,"[10]; agent C1, Trichophyton rubrum",0.8%
same,MIC-value,"[10]; agent C2, Trichophyton rubrum",0.8%
same,MIC-value,"[11]; agent D1, Aspergillus niger",6.3%
same,MIC-value,"[11]; agent D2, Aspergillus niger",6.3%
same,pH in the MIC plate,[12]; MIC-plate 0.05 (% composition in Isosensitest agar),7
same,pH in the MIC plate,[12]; MIC-plate 0.1 (% composition in Isosensitest agar),7
same,pH in the MIC plate,[12]; MIC-plate 0.2 (% composition in Isosensitest agar),7
same,pH in the MIC plate,[12]; MIC-plate 0.4 (% composition in Isosensitest agar),7
same,pH in the MIC plate,[12]; MIC-plate 0.8 (% composition in Isosensitest agar),7
same,pH in the MIC plate,[12]; MIC-plate 1.6 (% composition in Isosensitest agar),7
same,pH in the MIC plate,[12]; MIC-plate 3.1 (% composition in Isosensitest agar),7
same,pH in the MIC plate,[12]; MIC-plate 6.3 (% composition in Isosensitest agar),7
same,pH in the MIC plate,[12]; MIC-plate 12.5 (% composition in Isosensitest agar),7
same,pH in the MIC plate,[12]; MIC-plate 25 (% composition in Isosensitest agar),7
same,pH in the MIC plate,[12]; MIC-plate 50 (% composition in Isosensitest agar),7
same,MIC-value,"[13]; agent G1, Pseudomonas aeruginosa",1.6%
same,MIC-value,"[13]; agent G2, Pseudomonas aeruginosa",3.1%
